1 compound from patent US20090247543A1, “GATIFLOXACIN-CONTAINING AQUEOUS LIQUID PREPARATION” (Kyorin Pharmaceutical Co., Ltd., priority 2008, published 2009) can be followed below.

In general, MIC refers to the lowest concentration found to suppress growth. Low values mean inhibition by little substance, high ones a need for much substance.

Values after ≈ are worked out from the molar mass of the structure shown.

For this assay, the system named is Enterococcus faecalis (opthalmologic clinical isolated strain A-2-7). Kind of assay: Minimal inhibitory concentration used as indicator for T>MIC. Format: cell-based.

In the case of `COc1c(N2CCNC(C)C2)c(F)cc2c(=O)c(C(=O)O)cn(C3CC3)c12` (racemic) [Gatifloxacin, (±)-1-cyclopropyl-6-fluoro-1,4-dihydro-8-methoxy-7-(3-methyl-1-piperazinyl)-4-oxo-3-quinolinecarboxylic acid], 0.39 µg/mL (≈ 1.04 µM) was the least that counted as inhibitory (MIC).
